Measured values taken from patent publication US20170114093A1, “Methods of Treatment and Prevention of Disease by Arginine-rich Compositions that Induce Cytoprotection and Neuroprotection” (priority 2015, published 2017).
“Also recorded” adds a separate entry of the source.

Legend:
[1] = tested on: primary rat cortical neurons; test: Oxygen glucose deprivation (OGD, 90 min) of primary neuronal cultures, cell viability by MTT reduction; type: cell-based; settings: for level of protection from OGD, compared with Compound 4: 90 min OGD; for protection of cortical rat neurons from the impact of OGD (cell viability): pre-incubation 30 min before 90 min OGD, MTT
Method: FIGS. 1 and 2 are histograms showing the cell viability of primary rat cortical neurons that had been exposed to ninety (90) minutes oxygen glucose deprivation. Pre-incubation of an arginine-rich polypeptide [RRRRRRRRR (SEQ ID: 4)]
Dissociated primary neuronal cell cultures were prepared from rat brains at 37° C. in a humidified atmosphere containing 5% CO2 and […] and grown to confluence in glucose-containing media. Indicated compounds were applied thirty (30) minutes before cultures were placed in an environment of oxygen glucose deprivation (OGD). OGD was achieved using glucose-free media and a humidified atmosphere containing 5% CO2 and 95% N2. OGD was continued for ninety (90) minutes and terminated by return to baseline conditions with glucose and O2 restored. Reduction of 3-(4,5-dimethyl-2-thiazolyl)-2,5-diphenyltetrazolium bromide (MTT) by cellular dehydrogenases measured mitochondrial activity and cell health. […] This model is a dissociated cell preparation, therefore vasculature is absent, therefore the activity of Compound 4 (SEQ ID NO: 4), an inventive Arginine rich polypeptide, is shown to be independent of changes to vascular tone and indicates protection from a novel mechanism of action.

SAPK/JNK = test: Western blot of phospho-SAPK/JNK (cell death signaling) in OGD-treated primary neuronal cultures; type: cell-based, rat; settings: after OGD
Source text: JNK signaling is widely considered to be an indicator of cell death signaling.
Dissociated primary neuronal cell cultures treated in the same manner as indicated in Example 2 were collected and their cells lysed. Cellular proteins were precipitated and denatured for immunohistochemical analysis by Western Blot. Phospho-SAPK/JNK ([…]) antibody detects endogenous levels of p46 and p54 SAPK/JNK dually phosphorylated at threonine 183 and tyrosine 185. Levels of The stress-activated protein kinase/Jun-amino-terminal kinase SAPK/JNK are widely considered to be molecular sequelae of the activation of cell death pathways that lead to apoptosis.

With `C[C@H](NC(c1cccc2[nH]c(=O)c(=O)[nH]c12)P(=O)(O)O)c1ccc(Br)cc1` (some centres unmarked) [NVPAAM077] the “level of protection from OGD, compared with Compound 4” value ([1]; 100 nM) was “comparable” and the “level of JNK cell death signaling, compared with Compound 4 2 μM” value (SAPK/JNK; 100 nM) was “comparable”.
For `C[C@@H]([C@@H](O)c1ccc(O)cc1)N1CCC(O)(c2ccccc2)CC1` [CP 101 606], the “level of protection from OGD, compared with Compound 4” value ([1]; 10 μM) was “comparable” and the “level of JNK cell death signaling, compared with Compound 4 2 μM” value (SAPK/JNK; 10 μM) was “comparable”.
In the case of “RRRRRRRRR (cell penetrating peptide) [Compound 4]”, the “protection of cortical rat neurons from the impact of OGD (cell viability)” value (“protection of cortical rat neurons” below) ([1]; 2 μM) is reported as “significant protection”, the “protection of cortical rat neurons” value ([1]; 10 μM) is reported as “significant protection” and the “p54 and p48 JNK cell death signaling (Western blot)” value (SAPK/JNK; 2 μM, p<0.05, n=3) is reported as “significantly suppressed”.
In the case of “CCRRRRRRR [Control peptide; cysteine-arginine peptide of the kind claimed in WO2013158739]”, the “protection of cortical rat neurons” value ([1]; 2 μM) is reported as “no significant neuroprotection; also recorded: no significant neuroprotective effect”, the “protection of cortical rat neurons” value ([1]; 2 μM, listed as ccrrrrrrr) is reported as “no significant neuroprotection; also recorded: no significant neuroprotective effect” and the “protection of cortical rat neurons” value ([1]; 10 μM) is reported as “no significant neuroprotection; also recorded: no significant neuroprotective effect”. For the same compound, the “protection of cortical rat neurons” value ([1]; 10 μM, listed as ccrrrrrrr) was “no significant neuroprotection; also recorded: no significant neuroprotective effect”.
